The record followed here is patent US20230102554A1 (GB002, INC., priority 2019, published 2023).

The target in test [1] is T1, Human PDGFRα, cytoplasmic domain (GST-PDGFRα) (Homo sapiens, UniProt P16234).
T1 construct: made in house
In words: Human PDGFRα biochemical inhibition assay (off-chip Mobility Shift Assay).

Test [2] deals with T2, Human PDGFRβ, cytoplasmic domain (GST-PDGFRβ) (Homo sapiens, UniProt P09619).
T2 construct: made in house
In words: Human PDGFRβ biochemical inhibition assay (off-chip Mobility Shift Assay). Put shortly: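 GST-tagged cytoplasmic domain (aa 557-1106) from baculovirus was incubated 1 h at room temperature with compound, CSKtide, ATP at Km and Mg²⁺ in HEPES buffer, pH 7.5. Phosphorylated and unphosphorylated peptide were separated by off-chip mobility shift, and the product ratio P/(P+S) gave percent inhibition.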

T2 sequence (P09619 with tags, fused parts or gaps): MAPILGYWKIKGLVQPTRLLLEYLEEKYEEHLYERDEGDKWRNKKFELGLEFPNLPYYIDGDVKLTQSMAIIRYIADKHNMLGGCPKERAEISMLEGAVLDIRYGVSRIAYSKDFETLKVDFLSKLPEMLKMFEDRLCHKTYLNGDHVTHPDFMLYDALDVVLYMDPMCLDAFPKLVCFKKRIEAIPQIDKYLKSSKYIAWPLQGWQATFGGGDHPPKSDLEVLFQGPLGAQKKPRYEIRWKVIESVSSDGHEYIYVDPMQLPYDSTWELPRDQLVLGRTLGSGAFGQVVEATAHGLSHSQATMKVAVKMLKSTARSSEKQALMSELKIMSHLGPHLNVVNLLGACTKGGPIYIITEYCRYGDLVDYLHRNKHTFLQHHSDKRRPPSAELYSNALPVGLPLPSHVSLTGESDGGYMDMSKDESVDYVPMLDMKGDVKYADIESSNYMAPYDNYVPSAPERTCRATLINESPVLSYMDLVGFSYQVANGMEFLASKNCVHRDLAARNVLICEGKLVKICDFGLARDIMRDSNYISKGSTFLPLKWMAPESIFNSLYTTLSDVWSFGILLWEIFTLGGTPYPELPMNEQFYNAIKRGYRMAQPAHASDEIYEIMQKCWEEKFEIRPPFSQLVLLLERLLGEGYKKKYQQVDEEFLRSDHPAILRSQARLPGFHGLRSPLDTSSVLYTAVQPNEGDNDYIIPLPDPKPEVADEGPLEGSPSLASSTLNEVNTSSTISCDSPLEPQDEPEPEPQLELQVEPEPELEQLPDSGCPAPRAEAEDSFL
T1 sequence (P16234 550-1089 T674I): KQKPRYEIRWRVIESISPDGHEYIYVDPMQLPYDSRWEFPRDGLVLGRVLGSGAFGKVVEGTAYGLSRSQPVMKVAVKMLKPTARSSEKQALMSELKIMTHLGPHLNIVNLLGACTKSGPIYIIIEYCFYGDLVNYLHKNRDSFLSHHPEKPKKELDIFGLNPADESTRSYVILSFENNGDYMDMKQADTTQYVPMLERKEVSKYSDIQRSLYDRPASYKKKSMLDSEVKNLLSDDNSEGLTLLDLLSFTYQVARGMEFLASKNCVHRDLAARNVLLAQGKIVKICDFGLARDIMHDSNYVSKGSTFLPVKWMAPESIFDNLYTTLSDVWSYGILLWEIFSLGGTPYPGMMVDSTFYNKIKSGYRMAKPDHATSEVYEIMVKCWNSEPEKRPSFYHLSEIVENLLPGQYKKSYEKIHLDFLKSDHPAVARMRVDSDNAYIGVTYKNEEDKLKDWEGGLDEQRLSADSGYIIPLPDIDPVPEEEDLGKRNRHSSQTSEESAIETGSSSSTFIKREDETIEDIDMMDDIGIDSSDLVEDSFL

Consider `CCn1cc2ncc(N[C@@H](C)c3cccc(NC(=O)Cc4cc(C)c(Cl)cn4)c3)nc2n1` [Compound 695, (S)-2-(5-chloro-4-methylpyridin-2-yl)-N-(3-(1-((2-ethyl-2H-pyrazolo[3,4-b]pyrazin-6-yl)amino)ethyl)phenyl)acetamide], for which the results for the IC50 in test [1] and in test [2] were less than 300 nM and 300 to 1000 nM, respectively.

Take `CCn1cc2ncc(N[C@@H](C)c3cccc(NC(=O)c4cnc(C5CC5)s4)c3)nc2n1` [Compound 296, (S)-2-cyclopropyl-N-(3-(1-((2-ethyl-2H-pyrazolo[3,4-b]pyrazin-6-yl)amino)ethyl)phenyl)thiazole-5-carboxamide]: the half-inhibitory concentration (IC50) in test [1] and in test [2] was less than 300 nM each time.

Turning to `CCn1cc2ncc(N[C@@H](C)c3cccc(NC(=O)c4ccc(CN5CC6(COC6)C5)c(C)c4)c3)nc2n1` [Compound 414, (S)-4-((2-oxa-6-azaspiro[3.3]heptan-6-yl)methyl)-N-(3-(1-((2-ethyl-2H-pyrazolo[3,4-b]pyrazin-6-yl)amino)ethyl)phenyl)-3-methylbenzamide], the IC50 in test [1] and in test [2] was less than 300 nM throughout.

Regarding `CCn1cc2ncc(N[C@@H](C)c3cc(NC(=O)c4ccc(C(F)(F)F)nc4)ccc3Cl)nc2n1` [Compound 458, (S)-N-(4-chloro-3-(1-((2-ethyl-2H-pyrazolo[3,4-b]pyrazin-6-yl)amino)ethyl)phenyl)-6-(trifluoromethyl)nicotinamide], the concentration for half-maximal inhibition (IC50) in test [1] and in test [2] was less than 300 nM each time.

On to `CCn1cc2ncc(N[C@@H](C)c3cc(NC(=O)c4cnc(C5CC5)c(C)c4)ccc3F)nc2n1` [Compound 322, (S)-6-cyclopropyl-N-(3-(1-((2-ethyl-2H-pyrazolo[3,4-b]pyrazin-6-yl)amino)ethyl)-4-fluorophenyl)-5-methylnicotinamide], for which the IC50 in test [1] and in test [2] was less than 300 nM each time.

Turning to `CCn1cc2ncc(N[C@@H](C)c3cccc(NC(=O)Cc4cncc(F)c4)c3)nc2n1` [Compound 623, (S)-N-(3-(1-((2-ethyl-2H-pyrazolo[3,4-b]pyrazin-6-yl)amino)ethyl)phenyl)-2-(5-fluoropyridin-3-yl)acetamide], the concentration for half-maximal inhibition (IC50) in test [1] was 300 to 1000 nM; in test [2], no less than 1000 nM.

In the case of `C[C@H](Nc1cnc2cnn(C)c2n1)c1cccc(NC(=O)c2cc(C(C)(C)C)nn2C)c1` [Compound 159, (S)-3-(tert-butyl)-1-methyl-N-(3-(1-((1-methyl-1H-pyrazolo[3,4-b]pyrazin-6-yl)amino)ethyl)phenyl)-1H-pyrazole-5-carboxamide], the half-maximal inhibitory concentration (IC50) in test [1] and in test [2] was less than 300 nM throughout.

With `Cc1cncc(C(=O)Nc2cccc([C@H](C)Nc3cnc4[nH]cc(-c5cncnc5)c4n3)c2)c1` [Compound 593, (S)-5-methyl-N-(3-(1-((7-(pyrimidin-5-yl)-5H-pyrrolo [2,3-b]pyrazin-2-yl)amino)ethyl)phenyl)nicotinamide], the half-maximal inhibitory concentration (IC50) in test [1] and in test [2] was less than 300 nM each time.

On to `C[C@H](Nc1cnc2cnn(C)c2n1)c1cccc(NC(=O)c2ccc(C3CC3)nc2)c1` [Compound 116, (S)-6-cyclopropyl-N-(3-(1-((1-methyl-1H-pyrazolo[3,4-b]pyrazin-6-yl)amino)ethyl)phenyl)nicotinamide], for which the IC50 in test [1] and in test [2] was less than 300 nM throughout.

As to `C[C@H](Nc1cnc2cnn(C)c2n1)c1cccc(NC(=O)c2cc(C(C)(C)C)n(C)n2)c1` [Compound 166, (S)-5-(tert-butyl)-1-methyl-N-(3-(1-((1-methyl-1H-pyrazolo[3,4-b]pyrazin-6-yl)amino)ethyl)phenyl)-1H-pyrazole-3-carboxamide], the IC50 in test [1] and in test [2] was less than 300 nM in each case.

With `C[C@H](Nc1cnc2cnn(C)c2n1)c1cccc(NC(=O)c2ccc3c(c2)COC3=O)c1` [Compound 67, (S)-N-(3-(1-((1-methyl-1H-pyrazolo[3,4-b]pyrazin-6-yl)amino)ethyl)phenyl)-1-oxo-1,3-dihydroisobenzofuran-5-carboxamide], the IC50 in test [1] and in test [2] was less than 300 nM in each case.

Take `CCn1cc2ncc(N[C@@H](C)c3cccc(NC(=O)Nc4cc(C)ccn4)c3)nc2n1` [Compound 735, (S)-1-(3-(1-((2-ethyl-2H-pyrazolo[3,4-b]pyrazin-6-yl)amino)ethyl)phenyl)-3-(4-methylpyridin-2-yl)urea]: the half-maximal inhibitory concentration (IC50) in test [1] and in test [2] was less than 300 nM throughout.

For `COc1ccc(-n2ccc3ncc(N[C@@H](C)c4cccc(NC(=O)c5cncc(C)c5)c4)nc32)cc1OC` [Compound 87, (S)-N-(3-(1-((5-(3,4-dimethoxyphenyl)-5H-pyrrolo [2,3-b]|pyrazin-3-yl)amino)ethyl)phenyl)-5-methylnicotinamide], the IC50 in test [1] and in test [2] was less than 300 nM in each case.

For `CCn1cc2ncc(N[C@@H](C)c3cc(NC(=O)Cc4ccc(F)cn4)ccc3F)nc2n1` [Compound 649, (S)-N-(3-(1-((2-ethyl-2H-pyrazolo[3,4-b]pyrazin-6-yl)amino)ethyl)-4-fluorophenyl)-2-(5-fluoropyridin-2-yl)acetamide], the IC50 in test [1] was less than 300 nM; in test [2], 300 to 1000 nM.

As for `Cc1cncc(C(=O)Nc2cccc([C@H](C)Nc3cnc4[nH]nc(Br)c4n3)c2)c1` [Compound 549, (S)-N-(3-(1-((3-bromo-1H-pyrazolo[3,4-b]pyrazin-5-yl)amino)ethyl)phenyl)-5-methylnicotinamide], the half-inhibitory concentration (IC50) in test [1] and in test [2] was less than 300 nM in each case.

In the case of `CCn1cc2ncc(N[C@@H](C)c3cc(NC(=O)Cc4cncc(F)c4)ccc3F)nc2n1` [Compound 653, (S)-N-(3-(1-((2-ethyl-2H-pyrazolo[3,4-b]pyrazin-6-yl)amino)ethyl)-4-fluorophenyl)-2-(5-fluoropyridin-3-yl)acetamide], the 50% inhibitory concentration (IC50) in test [1] was less than 300 nM; in test [2], no less than 1000 nM.

Take `Cc1cc2ncc(N[C@@H](C)c3cc(NC(=O)c4ccc(OC(F)F)nc4)ccc3F)nc2s1` [Compound 611, (S)-6-(difluoromethoxy)-N-(4-fluoro-3-(1-((6-methylthieno[2,3-b]pyrazin-3-yl)amino)ethyl)phenyl) nicotinamide]: the IC50 in test [1] and in test [2] was less than 300 nM in each case.

On to `C[C@H](Nc1cnc2cnn(C)c2n1)c1cccc(NC(=O)c2cncc(O)c2)c1` [Compound 241, (S)-5-hydroxy-N-(3-(1-((1-methyl-1H-pyrazolo[3,4-b]pyrazin-6-yl)amino)ethyl)phenyl)nicotinamide], for which the IC50 in test [1] is less than 300 nM; in test [2] it was 300 to 1000 nM.

As for `C[C@H](Nc1cnc2cnn(C)c2n1)c1cccc(NC(=O)c2cncc(CO)c2)c1` [Compound 106, (S)-5-(hydroxymethyl)-N-(3-(1-((1-methyl-1H-pyrazolo[3,4-b]pyrazin-6-yl)amino)ethyl)phenyl)nicotinamide], the IC50 in test [1] was less than 300 nM; in test [2], 300 to 1000 nM.

With `CCn1cc2ncc(N[C@@H](C)c3cccc(NC(=O)c4cnc(C5OCCO5)s4)c3)nc2n1` [Compound 400, (S)-2-(1,3-dioxolan-2-yl)-N-(3-(1-((2-ethyl-2H-pyrazolo[3,4-b]pyrazin-6-yl)amino)ethyl)phenyl)thiazole-5-carboxamide], the figures for the IC50 in test [1] and in test [2] were 300 to 1000 nM and no less than 1000 nM, respectively.

Take `CCn1cc2ncc(N[C@@H](C)c3cccc(NC(=O)c4ccc(CN5CCOCC5)c(C)c4)c3)nc2n1` [Compound 403, (S)-N-(3-(1-((2-ethyl-2H-pyrazolo[3,4-b]pyrazin-6-yl)amino)ethyl)phenyl)-3-methyl-4-(morpholinomethyl) benzamide]: the IC50 in test [1] and in test [2] was less than 300 nM each time.

In the case of `Cc1ncc(C(=O)Nc2cccc([C@H](C)Nc3cnc4cnn(C)c4n3)c2)cc1F` [Compound 250, (S)-5-fluoro-6-methyl-N-(3-(1-((1-methyl-1H-pyrazolo[3,4-b]pyrazin-6-yl)amino)ethyl)phenyl)nicotinamide], the IC50 in test [1] and in test [2] was less than 300 nM throughout.

Take `COc1ncc(C(=O)Nc2cccc([C@H](C)Nc3cnc4cnn(C)c4n3)c2)cc1C` [Compound 128, (S)-6-methoxy-5-methyl-N-(3-(1-((1-methyl-1H-pyrazolo[3,4-b]pyrazin-6-yl)amino)ethyl)phenyl)nicotinamide]: the IC50 in test [1] and in test [2] was less than 300 nM throughout.

For the compound `CC(=O)OC(C)OC(=O)c1ccc(C(=O)Nc2cccc([C@H](C)Nc3cnc4cnn(C)c4n3)c2)cc1C` (stereo partly drawn) [Compound 256, 1-acetoxyethyl 2-methyl-4-((3-((S)-1-((1-methyl-1H-pyrazolo[3,4-b]pyrazin-6-yl)amino)ethyl)phenyl)carbamoyl) benzoate], the half-maximal inhibitory concentration (IC50) in test [1] and in test [2] was less than 300 nM throughout.

Regarding `CCn1cc2ncc(N[C@@H](C)c3cccc(NC(=O)c4ccc(CN5CC[C@H](O)C5)c(Cl)c4)c3)nc2n1` [Compound 494, 3-chloro-N-(3-((5)-1-((2-ethyl-2H-pyrazolo[3,4-b]pyrazin-6-yl)amino)ethyl)phenyl)-4-(((S)-3-hydroxypyrrolidin-1-yl)methyl) benzamide], the IC50 in test [1] and in test [2] was less than 300 nM throughout.

Take `CC(C)n1cc(C(=O)Nc2cccc([C@H](C)Nc3cnc4[nH]cc(-c5cnn(C)c5)c4n3)c2)cn1` [Compound 588, (S)-1-isopropyl-N-(3-(1-((7-(1-methyl-1H-pyrazol-4-yl)-5H-pyrrolo[2,3-b]pyrazin-2-yl)amino)ethyl)phenyl)-1H-pyrazole-4-carboxamide]: the IC50 in test [1] and in test [2] was less than 300 nM in each case.

As to `CCn1cc2ncc(N[C@@H](C)c3cccc(NC(=O)Cc4ccc(C(F)(F)F)c(F)c4)c3)nc2n1` [Compound 628, (S)-N-(3-(1-((2-ethyl-2H-pyrazolo[3,4-b]pyrazin-6-yl)amino)ethyl)phenyl)-2-(3-fluoro-4-(trifluoromethyl)phenyl)acetamide], the half-inhibitory concentration (IC50) in test [1] is less than 300 nM; in test [2] it was no less than 1000 nM.

By IC50 is commonly meant the concentration at which inhibition is half-maximal.
